Results reported in patent US8202875B2, “Selective insecticides based on substituted cyclic ketoenols and safeners” (Bayer Cropscience AG, priority 2004, dated 2012).

Legend:
Assay type in all cases: in vivo
[1] = tested on: cotton aphid (Aphis gossypii); assay: Aphis gossypii test, spray application on cotton plants; conditions: 100 ppm
From the text: (§1) The expected activity of a given combination of two active compounds can be calculated as follows (cf. Colby, S. R., “Calculating Synergistic and Antagonistic Responses of Herbicide Combinations”, Weeds 15, pages 20-22, 1967):
(§2) • X is the kill rate expressed in % of the untreated control when employing active compound A at an application rate of m ppm, • Y is the kill rate expressed in % of the untreated control when employing active compound B at an application rate of n ppm, • E is the kill rate expressed in % of the untreated control when using the active compounds A and B at application rates of m and n ppm,
(§3) If the actual insecticidal kill rate exceeds the calculated value, the kill of the combination is superadditive, i.e. a synergistic effect is present. In this case, the actually observed kill rate must exceed the value calculated using the above formula for the expected kill rate (E).
(§4) Adjuvant: rapeseed oil methyl ester (0.1% of a.i./l)
(§5) To prepare a suitable application solution, 1 part by weight of formulation is mixed with the appropriate amount of water and the adjuvant and the concentrate is diluted with water to the desired concentration. […]
(§6) After the desired period of time, the kill in % is determined. […] The determined kill rates are entered in Colby's formula.

[2] = tested on: green peach aphid (Myzus persicae); assay: Myzus persicae test, spray application on bell pepper plants
From the text: as §1, §2, §3, §4
To prepare a suitable application solution, 1 part by weight of formulation is mixed with the appropriate amount of water and the adjuvant and the concentrate is diluted with water to the desired concentration.
Bell pepper plants (Capsicum sativum) which are heavily infested by the green peach aphid (Myzus persicae) are sprayed to runoff point with the desired concentration of the application solution.
After the desired period of time, the kill in % is determined. 100% means that all aphids have been killed; 0% means that none of the aphids have been killed. The determined kill rates are entered in Colby's formula.

[3] = tested on: grain aphid (Metopolophium dirhodum); assay: Metopolophium dirhodum test, spray application on barley plants
From the text: as §1, §2, §3, §4, §5, §6

[4] = tested on: winter barley; assay: Safener test after spraying: plant damage to barley (greenhouse); conditions: 100 g of a.i./ha
Experimental: (§7) Method: Safener test after spraying
(§8) Solvent: 7 parts by weight of DMF
(§9) Emulsifier: 2 parts by weight of alkylaryl polyglycol ether
(§10) To produce a suitable preparation of active compound, 1 part by weight of active compound is mixed with the stated amounts of solvent and emulsifier, and the concentrate is diluted with tap water to the desired concentration. The desired amount of safener (in the case of mefenpyr-diethyl as WP 20) is mixed into the water used for dilution. Furthermore, 2 g of a.i./l of rapeseed oil methyl ester 500 EW are added. Leaves of winter barley at the 2-leaf stage which are infested by the bird cherry-oat aphid (Rhopalosiphum padi) are treated with the desired active compound and safener concentrations using a spray boom, the water application rate being […]. Per variant, the test is carried out at least twice. Evaluation is carried out after 7 d and/or 14 d by assessing the plant damage in % and the kill of the grain aphids in % compared to the untreated control. 100% damage means that the plant has died, and 0% means no damage. 100% effect on the grain aphids means that all aphids have been killed; 0% means that none of the aphids have been killed.
(§11) Results for greenhouse trials with safener after spraying against Rhopalosiphum padi on summer barley/winter barley

[5] = tested on: bird cherry-oat aphid (Rhopalosiphum padi); assay: Safener test after spraying: kill of aphids on barley (greenhouse); conditions: 100 g of a.i./ha, barley at 2-leaf stage, spray boom
Experimental: as §7, §8, §9, §10, §11

SMILES: C=CCN(CC=C)C(=O)C(Cl)Cl [Dichlormid a.i., 2,2-dichloro-N,N-di-2-propenyl-acetamide]
- Kill rate in % after 7 d, found [1]: 0%
- Kill rate in % after 7 d, found ([2]; 100 ppm): 0%
- Kill rate in % after 7 d, found ([3]; 100 ppm): 0%

SMILES: Clc1cc(Cl)nc(-c2ccccc2)n1 [Fenclorim a.i., 4,6-dichloro-2-phenyl-pyrimidine]
- Kill rate in % after 7 d, found ([2]; 50 ppm): 0%
- Kill rate in % after 7 d, found ([3]; 25 ppm): 0%

SMILES: CC1(C)OC(c2ccco2)CN1C(=O)C(Cl)Cl (centres unmarked) [Furilazole a.i., 3-dichloroacetyl-5-(2-furanyl)-2,2-dimethyl-oxazolidine]
- Kill rate in % after 7 d, found ([2]; 50 ppm): 0%

SMILES: CCOC(=O)C1=NN(c2ccc(Cl)cc2Cl)C(C)(C(=O)OCC)C1 (centres unmarked) [mefenpyr-diethyl, diethyl 1-(2,4-dichloro-phenyl)-4,5-dihydro-5-methyl-1H-pyrazole-3,5-dicarboxylate]
- Damage to new growth (%) 7 d ([4]; 7 d): 0%
- Damage (%) 7 d ([4]; 7 d, 100% = plant has died): 0%
- Damage to new growth (%) 14 d ([4]; 14 d): 0%
- Damage (%) 14 d ([4]; 14 d, 100% = plant has died): 0%
- Kill (%) 7 d [5]: 0%
